# Data: patent US20250282812A1, “ANTIVIRAL NUCLEOSIDE ANALOGUE, AND PHARMACEUTICAL COMPOSITION AND USE THEREOF” (SHANGHAI INSTITUTE OF MATERIA MEDICA , CHINESE ACADEMY OF …, priority 2022, published 2025)
# Columns and labels:
# [1] = Pharmacokinetic evaluation in rats (Test Example 1); type: in vivo; settings: rat, nucleoside X28-1 in plasma, male SD rats, single iv 10.0 mg/kg
# Experimental: Male SD rats, divided into intravenous (iv) and intragastric (po) groups, were fasted for 16 h before the experiment (the intravenous group was not fasted), with free access to water, and were fed together 2 h after administration. Compound X28-1 was intravenously injected at a dose of 10.0 mg/kg (n=3), and compounds X22, X51, and X102 (n=3) were intragastrically administered in equimolar amounts to X28-1, which were 15.5 mg/kg, 16.5 mg/kg, and 16.6 mg/kg, respectively, with a vehicle of 5% DMSO+5% enthanol+40% PEG400+50% saline. 0.2-0.3 mL of blood was collected via the jugular vein at 5 min (intravenous only), 0.25 h, 0.5 h, 1.0 h, 2.0 h, 4.0 h, 6.0 h, 8.0 h, and 24 h after administration. The blood samples were transferred into heparin sodium anticoagulation tubes, gently mixed uniformly, and centrifuged at 2000 g for 10 min. Plasma was isolated and frozen in a refrigerator at −70° C. for later detection. The concentration of nucleoside X28-1 in the plasma was determined by the LC-MS-MS method and pharmacokinetic parameters were calculated.
# [2] = Pharmacokinetic evaluation in rats (Test Example 2); type: in vivo; settings: rat, nucleoside X28-1 in plasma, male SD rats, single iv 5.0 mg/kg
# Experimental: A total of 12 male SD rats, divided into intravenous (IV) and intragastric (PO) groups, were fasted for 12 h before the experiment (the intravenous group was not fasted), with free access to water, and were fed together 2 h after administration. Compound X28-1 was intragastrically administered at a dose of 10.0 mg/kg (n=3) and intravenously injected at a dose of 5.0 mg/kg (n=3), and both compound X52 and compound X55 were intragastrically administered at a dose of 18.0 mg/kg (n=3), with a vehicle of 5% DMSO+5% enthanol+40% PEG400+50% saline. For the intravenous group, 0.2-0.3 mL of blood was collected via the jugular vein at 5 min, 0.25 h, 0.5 h, 1.0 h, 2.0 h, 4.0 h, 8.0 h, and 24.0 h after administration, and for the intragastric group, at 5 min, 0.5 h, 1.0 h, 2.0 h, 4.0 h, 6.0 h, 8.0 h, and 24.0 h after administration. The blood samples were transferred into heparin sodium anticoagulation tubes, gently mixed uniformly, and centrifuged at 2000 g for 10 min. Plasma was isolated and frozen in a refrigerator at −70° C. for later detection. The concentration of nucleoside X28-1 in the plasma was determined by the LC-MS-MS method and pharmacokinetic parameters were calculated.
# [3] = Pharmacokinetic evaluation in cynomolgus monkeys (Test Example 5); type: in vivo; settings: cynomolgus monkey, nucleoside X28-1 in plasma, male cynomolgus monkeys, single iv 1.0 mg/kg
# Experimental: Male cynomolgus monkeys were fasted for 12 h before intragastric administration, with free access to water, and were fed together 2 h after administration. X28-1 was intravenously administered at a dose of 1.0 mg/kg (n=3) and intragastrically administered at a dose of 5.0 mg/kg (n=3), and X219 hydrochloride was intragastrically administered at a dose of 10.7 mg/kg (n=3), with a vehicle for the compounds of 5% DMSO+5% enthanol+40% PEG400+50% saline. 0.5 mL of blood was collected via the forelimb vein at 5 min (intravenous only), 0.25 h, 0.5 h, 1.0 h, 2.0 h, 4.0 h, 6.0 h, 8.0 h, and 24.0 h after administration. The blood samples were transferred into heparin sodium anticoagulation tubes, gently shaken and mixed uniformly, put on ice, and immediately centrifuged (4° C., 2000 g, 10 min). After centrifugation, 100 μL of plasma was accurately pipetted and added to a plastic tube containing 400 μL of methanol solution with an internal standard, temporarily stored on dry ice after being vortexed, and then stored in an ultra-low temperature refrigerator for later detection. The concentration of nucleoside X28-1 in the plasma was determined by the LC-MS-MS method and pharmacokinetic parameters were calculated.
# [4] = test system: influenza virus (IFV) A/California/07/2009 (H1N1) pdm09 strain; experiment: In vitro activity against influenza virus (CPE, CCK8, MDCK cells); type: cell-based; settings: 120 h, read-out: IFV (MDCK) EC50
# [5] = test system: respiratory syncytial virus (RSV) A long strain; experiment: In vitro activity against respiratory syncytial virus (CPE, CCK8, HEp-2 cells); type: cell-based; settings: human respiratory syncytial virus, 120 h, MOI=0.02, 5 days
# [6] = test system: SFTSV-Nluc; experiment: microbe, parasite or virus in culture; type: cell-based, severe fever with thrombocytopenia syndrome virus (SFTSV); settings: Severe fever with thrombocytopenia syndrome virus, Vero, 48 h
# [7] = test system: wild-type SFSV virus (SFTSV-WT); type: in vivo; settings: A129 mice infected with SFTSV-WT; X28-1 20 mpk intragastric once daily Day 0 to Day 6
# [8] = test system: SFTSV-Nluc; parameters: species or system A129 mice; settings: mouse
# [9] = test system: respiratory syncytial virus (RSV A2); experiment: In vivo efficacy for respiratory syncytial virus (RSV) in mice
# [10] = in vitro; settings: dog
# [11] = Cytotoxicity in HEp-2 cells (CCK8); settings: human
# [12] = Stability test of compounds in solutions at different pH values
smiles,measurement,setting,value
"O=c1ccn([C@@H]2O[C@](F)(CO)[C@@H](O)[C@H]2O)c(=O)[nH]1 [Compound X28-1, reference compound]",AUC(0-inf),[1],22100 ng·h/mL
same,AUC(0-t),[1],20000 ng·h/mL
same,Cmax,[1],8080 ng/mL
same,half-life,[1],6.9 h
same,MRT inf,[1]; read-out: MRT0-∞,8.33 h
same,AUC(0-inf),[2],8690 ng·h/mL
same,AUC(0-t),[2],8290 ng·h/mL
same,Cmax,[2],2620 ng/mL
same,half-life,[2],6.09 h
same,MRT inf,[2]; read-out: MRT0-∞,6.89 h
same,AUC(0-inf),[3],3720 ng·h/mL
same,AUC(0-t),[3],3610 ng·h/mL
same,half-life,[3],5.38 h
same,MRT inf,[3]; read-out: MRT0-∞,4.21 h
same,EC50,[4],< 0.37 µM
same,EC50,[5],6.06 µM
same,EC50,[6],0.8 µM
same,inhibition at 10 µM,[6]; read-out: Inhibition rate (10 μM),95.3%
same,change in the body weight,[7],no significant change
same,survival rate,[7],100%
same,"in vivo fluorescence imaging, fluorescence intensity on ventral and dorsal side",[8],negligible fluorescence intensity
same,change in the body weight,"[8]; in vivo, 20 mg/kg",no significant change
same,"in vitro imaging of spleen, kidneys, liver and intestine: fluorescence intensity compared with the SFTSV-Nluc vehicle group","[8]; in vivo, 20 mg/kg",significantly weaker
same,spleen/body weight ratio and kidney/body weight ratio,"[8]; in vivo, 20 mg/kg",consistent with those in the blank control group
same,survival rate,"[8]; in vivo, 20 mg/kg",100%
same,viral titer and copy number in the spleen and kidney compared with the SFTSV-Nluc vehicle group,"[8]; in vivo, 20 mg/kg",significantly reduced
same,reduction in the pulmonary viral load compared with the vehicle group,"[9]; 10 mpk intragastric once daily, Day 4",about 0.4 log10
same,change in the body weight,"[9]; RSV A2-infected BALB/C mice, X219 hydrochloride 20 mpk or X28-1 10 mpk intragastric once daily",began to show an increase in the body weight on Day 3
same,CC50,[10],> 10 µM
same,CC50 at 5 days,[11],> 10 µM
same,Content reduction (%),"[12]; buffered saline solution pH 4.0, 3 h",5.7%
same,Content reduction (%),"[12]; buffered saline solution pH 4.0, 6 h",12.2%
same,Content reduction (%),"[12]; buffered saline solution pH 4.0, 9 h",17.5%
same,Content reduction (%),"[12]; buffered saline solution pH 4.0, 12 h",22.2%
same,Content reduction (%),"[12]; buffered saline solution pH 4.0, 15 h",26.9%
same,Content reduction (%),"[12]; buffered saline solution pH 4.0, 18 h",30.3%
same,Content reduction (%),"[12]; buffered saline solution pH 4.0, 21 h",35.9%
same,Content reduction (%),"[12]; buffered saline solution pH 4.0, 24 h",40.1%
same,Content reduction (%),"[12]; buffered saline solution pH 6.8, 3 h",8.0%
same,Content reduction (%),"[12]; buffered saline solution pH 6.8, 6 h",15.3%
same,Content reduction (%),"[12]; buffered saline solution pH 6.8, 9 h",22.0%
same,Content reduction (%),"[12]; buffered saline solution pH 6.8, 12 h",28.3%
same,Content reduction (%),"[12]; buffered saline solution pH 6.8, 15 h",33.4%
same,Content reduction (%),"[12]; buffered saline solution pH 6.8, 18 h",38.0%
same,Content reduction (%),"[12]; buffered saline solution pH 6.8, 21 h",42.9%
same,Content reduction (%),"[12]; buffered saline solution pH 6.8, 24 h",46.9%
